Columns and labels:
JAK2 = biological target: T1, JAK2 (Homo sapiens, UniProt O60674); experiment: JAK kinase autophosphorylation assay on immunoprecipitates (JAK2); format: biochemical; settings: immunoprecipitates from A549, MDA-MB-468 or v-Src/NIH 3T3 cells; AG490 100 μM, PD180970 2 μM
T1 construct: Src, JAK1, and JAK2 were immunoprecipitated from either A549, MDA-MB-468, or v-Src/NIH 3T3 cells; endogenous in cells; host or cells: A549, MDA-MB-468, v-Src transformed NIH 3T3 (immunoprecipitates)
Description: JAK Kinase Assays. A549, MDA-MB-468, and v-Src transformed NIH 3T3 cells were harvested, washed three times in PBS-V (10 mM sodium phosphate, pH 7.4, 137 mM NaCl, 1 mM sodium orthovanadate) then lysed for 30 min on ice in JAK kinase lysis buffer (25 mM Hepes, pH 7.4, 0.1% Triton-X-100, 0.5 mM DTT, 1 mM sodium orthovanadate, 1 mM PMSF, 10 μg/ml aprotinin, 10 μg/ml leupeptin). Samples were spun at high speed to clear, and 800-1000 μg of protein was immunoprecipitated per treatment condition with 50 ng of either JAK1 or JAK2 antibody (Santa Cruz Biotechnology) rocking overnight at 4° C. 25 μl of protein A/G PLUS agarose then was added and rocking continued for 1 hr at 4° C. Samples were spun to collect agarose pellet, and pellet washed twice in wash buffer (50 mM Hepes, pH 7.4, 0.1% Triton-X-100, 0.5 mM DTT, 150 mM NaCl) and once in phosphorylation buffer (50 mM Hepes, pH 7.4, 0.1% Triton-X-100, 0.5 mM DTI, 6.25 mM manganese chloride, 100 mM NaCl). Kinase reactions were performed at 30° C. for 15 min in a final volume of 100 μl of phosphorylation buffer. Samples were pretreated with DMSO control, JSI-124, and control compounds (AG490, 100 μM, and […], 2 μM) before addition of 20 μCi/sample y-[^32P]ATP. Reaction was halted using stop buffer (wash buffer plus 10 mM EDTA), samples spun to collect pellet, then pellet washed once with stop buffer and twice with wash buffer. Samples were then placed in 2×SDS-PAGE sample buffer, boiled at 100° C., and run on 8% SDS-PAGE gels to separate proteins. Autophosphorylation results were visualized by autoradiography.

Ras/NIH 3T3 tumors = experiment: Antitumor activity, oncogenic Ras-transformed NIH 3T3 tumors in nude mice; format: in vivo; settings: 1 mg/kg/day i.p.
From the text: (§1) Antitumor Activity in the Nude Mouse Tumor Xenograft Model. Nude mice and C57 BL-6 black mice (National Cancer Institute, Bethesda, Md.) were maintained in accordance with the Institutional Animal Care and Use Committee (IACUC) procedures and guidelines. v-Src- and oncogenic H-Ras-transformed NIH 3T3, A549, MDA-MB-468 and Calu-1 cells were harvested, resuspended in PBS and injected s.c. into the right and left flank (10×10^6 cells per flank) of 8 week old female nude mice as reported previously (Sun, J. et al. Cancer Res., 1999, 59:4919-4926). Similarly, murine B16-F10 Melanoma cells were injected s.c. into the right and left flank (10^6 cells per flank) of C57 black mice. When tumors reached about 150 mm^3, animals were randomized (five animals per group; two tumors per animal) and dosed i.p. with 0.2 ml once daily. Control animals received DMSO (20%) vehicle whereas treated animals were injected with JSI-124 (1 mg/kg/day) in 20% DMSO in water. The tumor volumes were determined by measuring the length (l) and the width (w) and calculating the volume (V=1w^2/2) as described previously (Sun, J. et al. Cancer Res., 1999, 59:4919-4926). Statistical significance between control and treated animals were evaluated by using Student's t-test. […] Percent surviving mice was determined by monitoring the death of mice until all mice died. […]

B16-F10 tumors = experiment: Antitumor activity, B16-F10 melanoma in C57 black mice; format: in vivo; settings: 1 mg/Kg/day
From the text: as §1

T1 sequence (O60674 whole entry): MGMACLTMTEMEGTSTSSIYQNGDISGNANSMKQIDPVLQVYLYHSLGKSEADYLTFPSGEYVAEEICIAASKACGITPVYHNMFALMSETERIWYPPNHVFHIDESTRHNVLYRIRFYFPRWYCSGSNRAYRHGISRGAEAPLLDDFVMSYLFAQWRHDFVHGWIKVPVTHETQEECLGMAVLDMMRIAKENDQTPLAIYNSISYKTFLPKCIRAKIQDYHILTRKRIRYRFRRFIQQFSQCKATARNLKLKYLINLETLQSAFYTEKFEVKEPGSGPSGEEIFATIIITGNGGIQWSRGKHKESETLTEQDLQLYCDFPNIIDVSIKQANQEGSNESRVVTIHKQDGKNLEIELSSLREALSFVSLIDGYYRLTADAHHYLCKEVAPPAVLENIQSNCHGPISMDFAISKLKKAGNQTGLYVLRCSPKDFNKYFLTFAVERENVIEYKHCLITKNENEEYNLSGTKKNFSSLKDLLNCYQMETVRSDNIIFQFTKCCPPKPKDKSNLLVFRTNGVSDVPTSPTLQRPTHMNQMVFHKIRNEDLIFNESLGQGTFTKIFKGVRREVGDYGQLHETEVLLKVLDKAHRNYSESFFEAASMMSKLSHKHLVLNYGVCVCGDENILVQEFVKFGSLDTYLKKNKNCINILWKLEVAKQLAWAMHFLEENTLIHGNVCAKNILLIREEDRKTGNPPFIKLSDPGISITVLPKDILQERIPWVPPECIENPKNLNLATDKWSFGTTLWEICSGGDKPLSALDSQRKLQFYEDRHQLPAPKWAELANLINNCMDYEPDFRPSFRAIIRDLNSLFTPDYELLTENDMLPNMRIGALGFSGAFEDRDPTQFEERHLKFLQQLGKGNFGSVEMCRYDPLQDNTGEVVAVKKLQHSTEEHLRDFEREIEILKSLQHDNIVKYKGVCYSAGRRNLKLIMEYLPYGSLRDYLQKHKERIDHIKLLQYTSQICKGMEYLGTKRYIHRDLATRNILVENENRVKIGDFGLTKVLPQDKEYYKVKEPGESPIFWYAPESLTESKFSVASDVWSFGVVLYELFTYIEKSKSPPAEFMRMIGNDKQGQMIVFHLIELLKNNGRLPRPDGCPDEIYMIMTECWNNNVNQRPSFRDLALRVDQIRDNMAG

Compound: CC(C)(O)/C=C/C(=O)[C@](C)(O)[C@H]1[C@H](O)C[C@@]2(C)[C@@H]3CC=C4[C@@H](C=C(O)C(=O)C4(C)C)[C@]3(C)C(=O)C[C@]12C [JSI-124, cucurbitacin I]
- JAK2 kinase activity (autophosphorylation) in vitro (JAK2): not affected
- growth of Ras/NIH 3T3 tumors (Ras/NIH 3T3 tumors): resistant
- average size of B16-F10 tumors (B16-F10 tumors): 588±94
- inhibition of B16-F10 tumor growth (B16-F10 tumors): 56%

From patent US8691799B2, “Materials and methods for treatment of cancer and identification of anti-cancer compounds” (priority 2001, dated 2014)
